# Laboratory results reported in article PMC6814738, “Bacterial MgrB peptide activates chemoreceptor Fpr3 in mouse accessory olfactory system and drives avoidance behaviour” (Nature Communications, 2019).
# Where “and” joins values, the source holds several entries; their conditions need not be identical. Identical values can stand only once. Peptide text beside a SMILES is read from it. * marks the point of attachment. For = O=C*
# Assays:
# [1] = system: vomeronasal sensory neurons (VSNs); assay: VNO whole-mount en face confocal Ca2+ imaging of VSN dendritic knobs (Fig. 4, 5); type: cell-based, mouse; design: key to Ca2+ response of f-MKKFRW-responsive VSN knobs / Fpeak: normalised to knob resting fluorescence F0 before stimulation; conditions: for Fpeak / Ca2+ response of f-MKKFRW-responsive VSN knobs: Fig. 4h; for Fpeak: mean of individual knobs, n = 103 f-MKKFRW, 21 f-MKKFRWVVL, 68 MKKFRW, 26 f-MGFFIS, 63 PUM; for Ca2+ responses in VSNs, in words: VNE of adult B6 mice, f-MKKFRW 1 µM; for Ca2+ response of f-MKKFRW-responsive VSN knobs: adult B6 mice, mean ± s.d., N = 103 (f-MKKFRW), 21 (f-MKKFRWVVL), 68 (MKKFRW), 26 (f-MGFFIS), 63 (PUM)
# From the text: Mice (6–20 week old, either sex) were euthanized by CO2 inhalation according to institutional guidelines. After decapitation, the skin was removed from the skull, the mandible was cut off and the cranium was opened by a sagittal cut, 1–2-mm right-lateral in parallel to the midline. The palate and the right incisor were removed and the hemisected skull was mounted in low-melting agarose (4%). The bony capsule of the VNO was opened with fine forceps and the nonsensory epithelium was stripped off. Tissue and cell debris were gently washed off, and the en face preparation was superfused with physiological S1 solution (120 mM NaCl, 25 mM NaHCO3, 5 mM KCl, 1 mM MgSO4, 1 mM CaCl2, 10 mM glucose, 5 mM BES, pH 7.3) saturated with carbogen (95% O2, 5% CO2).
# Loading of the VNE with Rhod-2/AM (5–15 µM, 1 h) was performed in S1 solution under carbogen atmosphere at RT. Images were taken with an upright confocal laser scanning microscope (Leica TCS SP5 II, 20x water immersion objective HCX APO L20x/1.0w) equipped with Ar and He/Ne lasers. GFP was excited at 488 nm, Venus at 514 nm and Rhod-2 at 543 nm. Emission was measured at 490–520 nm (GFP), 520–600 nm (Venus) and 560–680 nm (Rhod-2). To minimise interference between Venus and Rhod-2 fluorescence, images were taken sequentially (sample interval per image, 3–4 s). Peptide stimuli were applied to the VNE surface with a local perfusion system which, when positioned close to the anterior end of the VNO, produced a continuous solution stream from rostral to caudal along the VNO axis. Data analysis was performed with the open source software ImageJ (NIH). Ca^2+ responses of individual dendritic knobs were normalised to the knob resting fluorescence level obtained before stimulation (ratio Fx/F0, Fx = actual fluorescence; F0 = mean fluorescence of 3–5 images before ligand application). Mapping was performed by superimposing Ca^2+ peak images onto images showing intrinsic fluorescence for specific markers.
# Predator urine mix was composed of urine from mountain lion, coyote, bobcat, fox and marten (at equal volume ratios), purchased from Predatorpee (USA) and Kieferle (Germany). The fMet peptides were as described above. Stimuli were applied in S2 solution (140 mM NaCl, 5 mM KCl, 10 mM HEPES, 1 mM CaCl2, 1 mM MgCl2, 10 mM glucose, pH 7.3 with NaOH).
# [2] = system: male mice; assay: Behavioural avoidance test, FEU vs. FEU supplemented with peptide (Fig. 8, Supplementary Fig. 4); type: in vivo, mouse; conditions: for avoidance index: mean ± s.e.m.; for Preference (%): group mean value, FEU vs FEU supplemented with 100 µM peptide
# Experimental: These assays were adapted from behavioural procedures described previously[14],[60]. We tested avoidance by giving adult male mice (8–14 week old) of various genotypes a choice to freely investigate two types of chemical stimuli: FEU vs. FEU supplemented with a peptide. Mice were sexually naïve and not exposed to the test stimuli prior to the testing day. Mice were habituated for three days (40 min each day) to clean filter papers (2.5 cm diameter), each deposited in a sterile plastic culture dish and placed in opposite corners of the test cage (30 × 12 cm). After the third habituation period, the test subject was transferred into a new cage containing fresh filter papers/dishes with either of the two test stimuli. One filter paper was impregnated with 45 µl of fresh urine pooled from two sexually naïve female B6 mice (8–16 weeks old) in oestrus (FEU, female oestrous urine) and 5 µl physiological solution containing (in mM): NaCl, 130; KCl, 5; Na-Hepes, 10; CaCl2, 2; glucose, 10; pH = 7.4. For testing the effects of specific peptides, the second filter paper was impregnated with FEU supplemented with a given peptide (100 or 50 µM final concentration, dissolved in physiological solution). Direct physical contact was allowed. Behaviour was recorded for 10 min from the top of the cage. Mice were exposed only once to a given peptide solution, and were exposed to only one peptide stimulus per day. Stimuli were presented in randomised order. […] This investigative behaviour was quantified as the time spent in close contact with each filter paper, scored manually by an observer blind to the experimental conditions using Behavioural Observation Research Interactive Software (BORIS)[85]. Contact time was measured as the time during which the nose crossed the border of a petri dish containing impregnated filter paper. An avoidance index was calculated as (TP — aTU)/(aTP + aTU), with TP as the time an individual mouse investigated a FEU-peptide mixture, aTP as the average time of all tested mice investigating this stimulus and aTU as the average time of all mice investigating FEU without added peptide. Negative values represent avoidance and positive values represent attraction. For analysing investigation of sick conspecifics, B6 mice were injected either with LPS or PBS as described above. In total, 4 h post injection, these mice were anaesthetised with 165 mg/kg ketamine (Pharmacia GmbH, Berlin, Germany) and 11 mg/kg xylazine (Bayer Health Care, Leverkusen, Germany) and then used in behavioural tests.
# [3] = 100 µM, B6 mice (f-MKKFRW also ΔFpr3-lacZ+/+, cGαo+/−, Trpc2+/−)
# [4] = B6, 100 µM in FEU, n = 10-11, negative = avoidance
# [5] = Fig. 8c, individual values, B6 mice
# [6] = Fig. 8c, mean, B6 mice, n = 11 f-MKKFRW, 11 MKKFRW, 10 f-MGFFIS, 10 f-MEQQNK, FEU control -0.002
molecule,measurement,setting,value
f-MGFFIS [bacterial signal peptide fragment],Fpeak,[1],0.00
same,"Ca2+ responses in VSNs, in words",[1],failed to evoke Ca^2+ responses in VSNs
same,Ca2+ response of f-MKKFRW-responsive VSN knobs,[1],0.00 ± 0.00
same,"avoidance, in words",[2]; [3],failed to elicit avoidance
same,avoidance index,[2]; [4],0.13 ± 0.09
same,Preference Index,[2]; [5],-0.07414 and 0.6081 and -0.2699 and 0.01401 and 0.4619 and -0.1746 and 0.304 and 0.1043 and 0.0419 and 0.2857
same,Preference Index,[2]; [6],0.13
CSCC[C@H](NC=O)C(=O)N[C@@H](CCCCN)C(=O)N[C@@H](CCCCN)C(=O)N[C@@H](Cc1ccccc1)C(=O)N[C@@H](CCCNC(=N)N)C(=O)N[C@@H](Cc1c[nH]c2ccccc12)C(=O)O [f-MKKFRW] (For-MKKFRW-OH),fraction of knobs responding,"[1]; 1 µM, VNE, B6 mice",~ 0.15%
same,"Ca2+ responses in Venus+ (B2m) vs GFP+ (NP2) knobs, in words","[1]; 1 µM, heterozygous NP2∆ or B2m-Venus mice, Fig. 5g, h",Responses occurred in Venus+ but not in GFP+ knobs
same,Fpeak,[1],0.71
same,"Ca2+ responses in VSNs, in words",[1],"robust, transient Ca^2+ elevations in a small subset of VSNs"
same,Ca2+ response of f-MKKFRW-responsive VSN knobs,[1],0.71 ± 0.44
same,detection threshold for evoked Ca2+ responses in VSNs,"[1]; native VSNs of adult B6 mice, Rhod-2/AM, Fig. 4f",≤ 0.1 µM
same,"avoidance, in words","[2]; 50 µM, B6 mice",mice were still capable of displaying avoidance
same,"avoidance, in words",[2]; [3],robust avoidance
same,"avoidance, in words","[2]; 100 µM, ΔFpr3-lacZ −/−, cGαo −/− and Trpc2 −/− mice",absent
same,avoidance index,"[2]; B6, 50 µM in FEU, N = 9, Supplementary Fig. 4d",-0.34 ± 0.06
same,avoidance index,[2]; [4],−0.34 ± 0.03
same,Preference Index,[2]; [5],-0.2596 and -0.3493 and -0.4593 and -0.377 (2×) and -0.1335 and -0.375 and -0.3656 and -0.2037 and -0.2877 and -0.531
same,Preference Index,[2]; [6],-0.34
same,Preference Index,"[2]; Fig. 8e, individual values, cGao +/-",-0.2157 and -0.2715 and -0.2275 and -0.592 and -0.6063 and -0.5538 and -0.3716 and -0.4364 and -0.4748 and -0.4802 and -0.5951 and -0.504 and -0.5805
same,Preference Index,"[2]; Fig. 8e, individual values, cGao -/-",0.466 and 0.06846 and 0.3027 and 0.3207 and 0.1056 and -0.3803 and 0.00671 and 0.2965 and 0.7963 and 0.4351 and -0.3658 and -0.3561 and -0.3465
same,Preference Index,"[2]; Fig. 8e, mean, cGao +/-, n = 13 f-MKKFRW, 12 MKKFRW, FEU control -0.0358",-0.45
same,Preference Index,"[2]; Fig. 8e, mean, cGao -/-, n = 13, FEU control 0.15",0.10
same,Preference Index,"[2]; Fig. 8f, individual values, Trpc2 +/-",-0.1378 and -0.4957 and -0.5951 and -0.4313 and -0.5692 and -0.4357 and -0.03894 and -0.2863 and -0.157 and -0.6487 and -0.5152 and -0.5504
same,Preference Index,"[2]; Fig. 8f, individual values, Trpc2 -/-",-0.1066 and -0.3083 and -0.1978 and -0.152 and 0.6895 and 0.2354 and -0.08494 and 0.4331 and -0.3499 and -0.2993 and -0.07691
same,Preference Index,"[2]; Fig. 8f, mean, Trpc2 +/-, n = 12 f-MKKFRW, 9 MKKFRW, FEU control -0.0531",-0.41
same,Preference Index,"[2]; Fig. 8f, mean, Trpc2 -/-, n = 11 f-MKKFRW, 8 MKKFRW, FEU control -0.10",-0.02
same,Preference (%),"[2]; Fig. 8g, ∆Fpr3-lacZ +/+ males, FEU/FEU control -5.85844",-25.7155%
same,Preference (%),"[2]; Fig. 8g, ∆Fpr3-lacZ -/- males, FEU/FEU control 2.58474",9.5733%
same,Preference (%),"[2]; Fig. 8h, Trpc2 +/- males, FEU/FEU control 0.100694",-20.0023%
same,Preference (%),"[2]; Fig. 8h, Trpc2 -/- males, FEU/FEU control -3.21189",-1.896%
same,Preference Index,"[2]; Fig. 8d, individual values, ∆Fpr3-lacZ +/+",-0.634 and -0.7071 and -0.2684 and -0.569 and -0.6199 and -0.495 and -0.4793 and -0.629 and -0.5062
same,Preference Index,"[2]; Fig. 8d, individual values, ∆Fpr3-lacZ -/-",-0.00973 and -0.216 and 0.248 and 0.6807 and 0.8928 and 0.2328 and 0.2493 and -0.01291 and 0.00975 and -0.2244 and 0.2479 and 0.4981
same,Preference Index,"[2]; Fig. 8d, mean, ∆Fpr3-lacZ +/+, n = 9 f-MKKFRW, 6 MKKFRW, FEU control -0.06",-0.55
same,Preference Index,"[2]; Fig. 8d, mean, ∆Fpr3-lacZ -/-, n = 12, FEU control 0.19",0.22
same,avoidance index,"[2]; Trpc2 +/−, 100 µM in FEU",−0.41 ± 0.06
same,avoidance index,"[2]; Trpc2 −/−, 100 µM in FEU",−0.02 ± 0.10
same,avoidance index,"[2]; cGαo +/−, 100 µM in FEU",−0.45 ± 0.04
same,avoidance index,"[2]; cGαo −/−, 100 µM in FEU, n = 13",0.10 ± 0.11
same,avoidance index,"[2]; ∆Fpr3-lacZ +/+, 100 µM in FEU",−0.55 ± 0.04
same,avoidance index,"[2]; ∆Fpr3-lacZ −/−, 50 µM in FEU, N = 5, Supplementary Fig. 4d",0.005 ± 0.08
same,avoidance index,"[2]; ∆Fpr3-lacZ −/−, 100 µM in FEU, n = 12",0.22 ± 0.10
